Laboratory results reported in patent US20140005119A1, “COMPOSITIONS AND METHODS FOR INHIBITING THE ACTIVITY OF P110a MUTANT PROTEINS” (Case Western Reserve University, priority 2012, published 2014).

Assays:
p110α-p85 interaction = target: T1, p110α-p85 interaction (Homo sapiens, UniProt P42336, E545K); assay: Peptide competition assay in cell lysates, p110α-p85 interaction; assay type: binding
T1 construct: tag the endogenous WT or mutant p110α with 3×FLAG at their C termini in DLD1 cells; endogenous in cells; host or cells: DLD1 p110α E545K 3×FLAG knock-in cells
Description: FIGS. 3(A-M) illustrate: (A, B) Mapping peptides (P3, SEQ ID NO: 1; P4 SEQ ID NO: 2; P5, SEQ ID NO: 3; P6, SEQ ID NO: 4) derived from mutant p110α that inhibit interaction between IRS1 and p110α E545K. The indicated peptides were added into cell lysates made from the p110α E545K 3×FLAG KI cells. Cell lysates were immunoprecipitated with beads conjugated with anti-FLAG antibodies and then blotted with anti-IRS1 antibodies. (C) Immunoblots of cell lysates made from the p110α E545K 3×FLAG KI cells. Cell lysates were immunoprecipitated with beads conjugated with anti-FLAG antibodies and then blotted with the indicated antibodies. […] (J, K) Immunoblot and graph of purified recombinant p110α E545K mutant proteins mixed with the indicated components and quantified using an in vitro lipid kinase assay. […]
For Co-immunoprecipitation (Co-IP), cells were harvested, washed with PBS, and then lysed in IP buffer (50 mMTris [pH 7.4], 150 mMNaCl, 5 mMEDTA [pH 8.0], 0.5% NP40, 1 mM PMSF, complete Protease Inhibitor Cocktail tablet [Roche]; supplemented with phosphatase inhibitors [1 mM Na3VO4, 20 mM NaF, 0.1 mM b-glycerophosphate, 20 mM sodium pyrophosphate] when necessary). […] Lysates were then cleared by centrifugation (14,000 rpm, 10 min) and protein concentration in supernatants was determined with a BCA protein assay kit (Pierce, Rockford, Ill.). […]

AKT phosphorylation = assay: Immunoblot of AKT phosphorylation in cancer cell lines treated with stapled peptides; assay type: cell-based, human; set-up: AKT phosphorylation / AKT phosphorylation at both T308 and 5473 residues: dose or concentration left out as unconfirmed
Description: FIGS. 3(A-M) illustrate: (A, B) Mapping peptides (P3, SEQ ID NO: 1; P4 SEQ ID NO: 2; P5, SEQ ID NO: 3; P6, SEQ ID NO: 4) derived from mutant p110α that inhibit interaction between IRS1 and p110α E545K. The indicated peptides were added into cell lysates made from the p110α E545K 3×FLAG KI cells. Cell lysates were immunoprecipitated with beads conjugated with anti-FLAG antibodies and then blotted with anti-IRS1 antibodies. (C) Immunoblots of cell lysates made from the p110α E545K 3×FLAG KI cells. Cell lysates were immunoprecipitated with beads conjugated with anti-FLAG antibodies and then blotted with the indicated antibodies. (D) Immunoblots of cell lysate of Myc-tagged IRS1 plasmid, which co-transfected an ABD domain deletion construct of the FLAG-tagged p110α E545K mutant (ΔABD), incubated with the indicated amount of stapled p110α mutant peptides, and then immunoprecipitated with anti-FLAG antibodies and blotted with the indicated antibodies. (J, K) Immunoblot and graph of purified recombinant p110α E545K mutant proteins mixed with the indicated components and quantified using an in vitro lipid kinase assay. (L, M) Immunoblots of the indicated cell lines serum-starved, stimulated with 1 μg/ml insulin for 30 min, and then treated with or without the indicated peptides. Cell lysates were blotted with the indicated antibodies. All error bars show mean±SEM. *p<0.05, **p<0.001, t test.
FIG. 4(A-F) illustrate: (A) Schematic diagram of linear and stapled WT and mutant peptides derived from p110α (SEQ ID NOs: 5, 6, 7 and 8). (B) Immunoblots of cell lysates immunoprecipitated with beads conjugated with anti-FLAG antibodies and then blotted with the indicated antibodies. Linear or stapled WT and mutant peptide were added into culture medium of the p110α E545K 3×FLAG KI cells for 16 hr. (C) Immunoblots of cell lysates immunoprecipitated with anti-p110α antibodies and then blotted with the indicated antibodies. Vaco481 CRC cells were treated with the stapled mutant peptides at the indicated concentration. (D) Immunoblots of cell lysates blotted with the indicated antibodies. The indicated cell lines were treated with the stapled mutant peptide. (E) Immunoblots of cell lysates blotted with the indicated antibodies. The indicated cancer cell lines were treated or untreated with stapled WT or mutant peptide at […] for 2 hr. (F) Immunoblots of cell lysates were blotted with the indicated antibodies. The indicated cancer cell lines were treated with or without […] of stapled mutant peptide for 2 hr.
Colorectal cancer (CRC) cell lines DLD1, HCT116, Vaco481 and genetically engineered CRC cell lines were maintained in McCoy's 5A medium containing 10% fetal bovine serum (FBS). Lung cancer cell line H460 and breast cancer cell line T47D were cultured in RPMI 1640 medium plus 10% of FBS. Breast cancer cell line MDA-MB361 was maintained in Leibovitz's L-15 medium with 20% FBS. Human embryonic kidney HEK293 cells were cultured in DMEM medium containing 10% FBS. Mammalian cells were transfected with Lipofectamine in accordance with the manufacturer's instructions (Invitrogen).
For Co-immunoprecipitation (Co-IP), cells were harvested, washed with PBS, and then lysed in IP buffer (50 mMTris [pH 7.4], 150 mMNaCl, 5 mMEDTA [pH 8.0], 0.5% NP40, 1 mM PMSF, complete Protease Inhibitor Cocktail tablet [Roche]; supplemented with phosphatase inhibitors [1 mM Na3VO4, 20 mM NaF, 0.1 mM b-glycerophosphate, 20 mM sodium pyrophosphate] when necessary). For immunoblotting (IB) of phospho-specific proteins, unless stated otherwise, cells were lysed in urea buffer (100 mM NaH2PO4, 10 mM Tris-HCl, 8 M Urea, 1 mM Na3VO4, 20 mM NaF, 0.1 mM β-glycerophosphate, 20 mM sodium pyrophosphate, supplemented with complete Protease Inhibitor Cocktail tablet [Roche], pH 8.0). Lysates were then cleared by centrifugation (14,000 rpm, 10 min) and protein concentration in supernatants was determined with a BCA protein assay kit (Pierce, Rockford, Ill.). […]

T1 sequence (P42336 whole entry E545K): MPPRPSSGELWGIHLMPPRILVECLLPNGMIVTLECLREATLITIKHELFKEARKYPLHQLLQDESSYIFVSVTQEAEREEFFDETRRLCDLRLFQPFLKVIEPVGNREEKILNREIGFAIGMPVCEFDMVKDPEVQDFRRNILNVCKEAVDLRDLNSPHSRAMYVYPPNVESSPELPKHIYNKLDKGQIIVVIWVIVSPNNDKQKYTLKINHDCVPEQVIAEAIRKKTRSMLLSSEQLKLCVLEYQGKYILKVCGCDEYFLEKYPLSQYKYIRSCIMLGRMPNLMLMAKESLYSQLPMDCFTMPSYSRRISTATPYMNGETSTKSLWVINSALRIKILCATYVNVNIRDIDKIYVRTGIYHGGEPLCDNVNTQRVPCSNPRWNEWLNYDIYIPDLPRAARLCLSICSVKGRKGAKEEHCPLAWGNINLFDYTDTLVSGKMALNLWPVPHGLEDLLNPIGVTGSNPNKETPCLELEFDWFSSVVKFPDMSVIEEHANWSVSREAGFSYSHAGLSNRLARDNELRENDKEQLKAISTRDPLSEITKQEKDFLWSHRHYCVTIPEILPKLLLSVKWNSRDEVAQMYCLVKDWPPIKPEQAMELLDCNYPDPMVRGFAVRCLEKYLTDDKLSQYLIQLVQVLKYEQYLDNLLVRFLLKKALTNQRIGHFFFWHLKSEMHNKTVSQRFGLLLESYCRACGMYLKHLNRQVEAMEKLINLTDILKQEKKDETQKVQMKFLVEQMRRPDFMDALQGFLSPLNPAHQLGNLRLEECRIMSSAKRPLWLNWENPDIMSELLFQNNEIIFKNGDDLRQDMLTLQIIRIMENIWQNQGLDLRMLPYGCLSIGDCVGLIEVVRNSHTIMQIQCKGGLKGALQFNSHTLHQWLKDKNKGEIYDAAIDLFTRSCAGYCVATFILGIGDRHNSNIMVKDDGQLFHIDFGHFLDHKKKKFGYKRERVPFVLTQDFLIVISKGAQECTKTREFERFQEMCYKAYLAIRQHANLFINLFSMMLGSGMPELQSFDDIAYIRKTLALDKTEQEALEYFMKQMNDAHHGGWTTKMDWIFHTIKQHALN
T1 sequence (P27986 whole entry partner): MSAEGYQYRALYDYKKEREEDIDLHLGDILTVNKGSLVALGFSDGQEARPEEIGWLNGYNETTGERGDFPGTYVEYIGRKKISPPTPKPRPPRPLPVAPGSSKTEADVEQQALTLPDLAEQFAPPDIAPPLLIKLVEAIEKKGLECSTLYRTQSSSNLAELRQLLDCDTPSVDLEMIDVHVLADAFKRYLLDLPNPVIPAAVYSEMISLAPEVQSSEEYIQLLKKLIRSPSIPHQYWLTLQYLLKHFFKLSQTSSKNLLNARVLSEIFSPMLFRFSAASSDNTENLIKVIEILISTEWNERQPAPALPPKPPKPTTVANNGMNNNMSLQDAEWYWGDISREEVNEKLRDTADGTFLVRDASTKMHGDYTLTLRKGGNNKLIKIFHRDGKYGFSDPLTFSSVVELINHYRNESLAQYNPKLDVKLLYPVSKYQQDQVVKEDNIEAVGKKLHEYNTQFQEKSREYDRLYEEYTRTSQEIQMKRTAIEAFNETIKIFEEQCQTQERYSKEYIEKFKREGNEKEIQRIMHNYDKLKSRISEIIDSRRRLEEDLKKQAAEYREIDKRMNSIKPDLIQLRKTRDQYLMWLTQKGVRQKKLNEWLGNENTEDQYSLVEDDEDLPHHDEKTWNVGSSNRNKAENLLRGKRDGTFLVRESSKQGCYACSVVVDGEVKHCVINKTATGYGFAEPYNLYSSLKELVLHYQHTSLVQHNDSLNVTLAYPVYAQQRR

**Q.** Which “effect on p110α-p85 interaction” value (p110α-p85 interaction) does the source give for “H2N-SEITKQEK-D^549-FLW-S^553-HRHYC-COOH [stapled mutant peptide]” here?
**A.** no effects

**Q.** What about the “AKT phosphorylation at both T308 and 5473 residues” value (AKT phosphorylation; DLD1 cells harboring p110α E545K) of the same substance?
**A.** reduced

**Q.** What about the “AKT phosphorylation at both T308 and 5473 residues” value (AKT phosphorylation; H460 cells harboring p110α E545K) of the same substance?
**A.** reduced

**Q.** And the AKT phosphorylation (AKT phosphorylation; HCT116 cells harboring p110α H1047R)?
**A.** no effect

**Q.** What about the “AKT phosphorylation at both T308 and 5473 residues” value (AKT phosphorylation; MDA-MB361 cells harboring p110α E545K) of the same substance?
**A.** reduced

**Q.** And the AKT phosphorylation (AKT phosphorylation; RKO cells harboring p110α H1047R)?
**A.** no effect

**Q.** And the AKT phosphorylation (AKT phosphorylation; T47D cells harboring p110α H1047R)?
**A.** no effect

**Q.** What about the “AKT phosphorylation at both T308 and 5473 residues” value (AKT phosphorylation; Vaco481 cell line harboring p110α Q546P) of the same substance?
**A.** reduced

**Q.** What about the AKT phosphorylation (AKT phosphorylation; WT-only DLD1 cells) of the same substance?
**A.** did not affect

**Q.** What about the AKT phosphorylation (AKT phosphorylation; mutant-only DLD1 cells) of the same substance?
**A.** reduced

**Q.** What about the “AKT phosphorylation when cell lines were stimulated by insulin” value (AKT phosphorylation; serum-starved, 1 μg/ml insulin for 30 min) of the same substance?
**A.** no effect

**Q.** And the “AKT phosphorylation in cancer cells” value (AKT phosphorylation; summary statement on FIG. 4)?
**A.** reduced
